{
  "source": "patent US7687453B2",
  "about": "“Method for administering insulin to the buccal region” (Generex Pharmaceuticals Incorporated, priority 1998, dated 2010)",
  "type_in_all_cases": "in vivo, human",
  "key": {"meal glucose [1]": {"test_system": "meal glucose", "test": "Meal glucose, chewable gum insulin vs injection, Type II diabetic volunteers (Example 13)", "details": "injection 10 units, avg of five Type II diabetics, meal 30 min after dosing", "protocol": "The mixed micellar formulation in chewable stick form was tested in diabetic volunteers under controlled conditions to determine the oral insulin effect on meal glucose when compared to injected insulin.\n(§1) In one set of tests, five Type II diabetic human volunteers who took insulin, by injection three times a day, were studied. In another set of tests the volunteers were tested with the chewable gum insulin, taken orally. The volunteers fasted from midnight prior to the tests, with food being taken 30 minutes after dosing. The meals were standard Sastacal 240 mL liquid diet approved by the Diabetic Society, containing 400 calories.\n(§2) On the first day, the volunteers received 10 units insulin by injection (regular fast acting insulin, available from Eli Lilly). On the second day, the volunteers received 30 units of the above-prepared chewable gum oral insulin (3 times the injection dose). in both tests, blood glucose levels were monitored every 15 minutes by Bayer's Glucometer Elite."}, "blood glucose [2]": {"test_system": "blood glucose", "test": "Blood glucose after insulin injection vs oral insulin drops, fasted healthy non-diabetic volunteers (Example 1)", "set-up": "unit not given here", "details": "10 units sub-cutaneous injection, avg of 5 fasted healthy volunteers", "protocol": "In one set of tests, five healthy non-diabetic human volunteers were tested with insulin, by injection. In another set of tests the volunteers were tested with insulin, taken orally. The volunteers fasted from midnight prior to the test, with no food being taken during the 4 hour study.\nOn the first day, the volunteers received 10 units of insulin by injection (regular fast acting insulin, available from Eli Lilly). On the second day, the volunteers received 100 units (1 mL volume per drop, approximately 20 drops) of the above-prepared oral insulin (10 times the injection dose). In both tests, blood glucose levels were monitored every 15 minutes by Bayer's Glucometer Elite."}, "blood glucose [3]": {"test_system": "blood glucose", "test": "Blood glucose, nasal mixed micellar insulin vs injection (Example 10)", "details": "injection 10 units, avg of ten volunteers", "protocol": "The formulation of Example 9 was tested in a manner similar to that indicated in Example 8 except that the formulation of the present invention was administered nasally.\nOn the first day, the ten volunteers each received 10 units insulin injection (regular fast acting, Eli Lilly). On the second day, the volunteers received 20 units of the “oral” insulin of Example 9 (2 times the injection dose). The “oral” insulin was administered as drops (0.4 mL volume per drop, approximately 4 large drops in total, i.e. two drops in each nostril)."}, "meal glucose [4]": {"test_system": "meal glucose", "test": "Meal glucose, oral mixed micellar insulin vs injection, Type II diabetic volunteers (Example 12)", "details": "injection 10 units, avg of 10 Type II diabetics, meal 30 min after dosing", "protocol": "The mixed micellar formulation of Example 9 was tested in diabetic volunteers under controlled conditions to determine the oral insulin effect on meal glucose when compared to injected insulin.\nas §1, with “ten” for “five”, “with” for “with the chewable gum”\nas §2, with “above-prepared” for “above-prepared chewable gum”, “dose). In” for “dose). in”"}, "meal glucose [5]": {"test_system": "meal glucose", "test": "Meal glucose, oral mixed micellar insulin vs injection, healthy non-diabetic volunteers (Example 11)", "details": "injection 10 units, ten healthy volunteers, meal 30 min after dosing", "protocol": "The mixed micellar formulation of Example 9 was tested in healthy volunteers under controlled conditions to determine the oral insulin effect on meal glucose when compared to injected insulin.\nas §1, with “ten healthy non-diabetic” for “five Type II diabetic”, “were tested with” for “who took”, “injection.” for “injection three times a day, were studied.”, “with” for “with the chewable gum”\nas §2, with “above-prepared” for “above-prepared chewable gum”, “dose). In” for “dose). in”"}},
  "data": [
    {"substance": "regular fast acting insulin: regular fast acting insulin, available from Eli Lilly, given by injection (10 units)", "values": [
      {"measurement": "Blood glucose levels", "setting": "meal glucose [1]; 0 min", "value": 8.8, "unit": "mmol/L"},
      {"measurement": "Blood glucose levels", "setting": "meal glucose [1]; 15 min", "value": 8.2, "unit": "mmol/L"},
      {"measurement": "Blood glucose levels", "setting": "meal glucose [1]; 30 min", "value": 8.0, "unit": "mmol/L"},
      {"measurement": "Blood glucose levels", "setting": "meal glucose [1]; 45 min", "value": 8.4, "unit": "mmol/L"},
      {"measurement": "Blood glucose levels", "setting": "meal glucose [1]; 60 min", "value": 9.2, "unit": "mmol/L"},
      {"measurement": "Blood glucose levels", "setting": "meal glucose [1]; 75 min", "value": 10.3, "unit": "mmol/L"},
      {"measurement": "Blood glucose levels", "setting": "meal glucose [1]; 90 min", "value": 11.8, "unit": "mmol/L"},
      {"measurement": "Blood glucose levels", "setting": "meal glucose [1]; 105 min", "value": 11.6, "unit": "mmol/L"},
      {"measurement": "Blood glucose levels", "setting": "meal glucose [1]; 120 min", "value": 11.0, "unit": "mmol/L"},
      {"measurement": "Blood glucose levels", "setting": "meal glucose [1]; 135 min", "value": 10.2, "unit": "mmol/L"},
      {"measurement": "Blood glucose levels", "setting": "meal glucose [1]; 150 min", "value": 9.6, "unit": "mmol/L"},
      {"measurement": "Blood glucose levels", "setting": "meal glucose [1]; 165 min", "value": 9.5, "unit": "mmol/L"},
      {"measurement": "Blood glucose levels", "setting": "meal glucose [1]; 180 min", "value": 9.1, "unit": "mmol/L"},
      {"measurement": "Blood glucose levels", "setting": "meal glucose [1]; 195 min", "value": 8.7, "unit": "mmol/L"},
      {"measurement": "Blood glucose levels", "setting": "meal glucose [1]; 210 min", "value": 8.2, "unit": "mmol/L"},
      {"measurement": "Blood glucose levels", "setting": "meal glucose [1]; 225 min", "value": 8.0, "unit": "mmol/L"},
      {"measurement": "Blood glucose levels", "setting": "meal glucose [1]; 240 min", "value": 7.5, "unit": "mmol/L"},
      {"measurement": "Blood glucose level", "setting": "blood glucose [2]; 0 min", "value": 5.8},
      {"measurement": "Blood glucose level", "setting": "blood glucose [2]; 15 min", "value": 5.8},
      {"measurement": "Blood glucose level", "setting": "blood glucose [2]; 30 min", "value": 5.4},
      {"measurement": "Blood glucose level", "setting": "blood glucose [2]; 60 min", "value": 5.0},
      {"measurement": "Blood glucose level", "setting": "blood glucose [2]; 75 min", "value": 4.6},
      {"measurement": "Blood glucose level", "setting": "blood glucose [2]; 90 min", "value": 4.3},
      {"measurement": "Blood glucose level", "setting": "blood glucose [2]; 120 min", "value": 3.8},
      {"measurement": "Blood glucose level", "setting": "blood glucose [2]; 150 min", "value": 3.6},
      {"measurement": "Blood glucose level", "setting": "blood glucose [2]; 180 min", "value": 3.4},
      {"measurement": "Blood glucose level", "setting": "blood glucose [2]; 210 min", "value": 4.2},
      {"measurement": "Blood glucose level", "setting": "blood glucose [2]; 240 min", "value": 4.5},
      {"measurement": "Blood glucose levels", "setting": "blood glucose [3]; 0 min", "value": 6.8, "unit": "mmol/L"},
      {"measurement": "Blood glucose levels", "setting": "blood glucose [3]; 15 min", "value": 7.0, "unit": "mmol/L"},
      {"measurement": "Blood glucose levels", "setting": "blood glucose [3]; 30 min", "value": 6.8, "unit": "mmol/L"},
      {"measurement": "Blood glucose levels", "setting": "blood glucose [3]; 45 min", "value": 6.3, "unit": "mmol/L"},
      {"measurement": "Blood glucose levels", "setting": "blood glucose [3]; 60 min", "value": 6.3, "unit": "mmol/L"},
      {"measurement": "Blood glucose levels", "setting": "blood glucose [3]; 75 min", "value": 5.8, "unit": "mmol/L"},
      {"measurement": "Blood glucose levels", "setting": "blood glucose [3]; 90 min", "value": 5.2, "unit": "mmol/L"},
      {"measurement": "Blood glucose levels", "setting": "blood glucose [3]; 105 min", "value": 5.0, "unit": "mmol/L"},
      {"measurement": "Blood glucose levels", "setting": "blood glucose [3]; 120 min", "value": 5.2, "unit": "mmol/L"},
      {"measurement": "Blood glucose levels", "setting": "blood glucose [3]; 135 min", "value": 4.2, "unit": "mmol/L"},
      {"measurement": "Blood glucose levels", "setting": "blood glucose [3]; 150 min", "value": 4.6, "unit": "mmol/L"},
      {"measurement": "Blood glucose levels", "setting": "blood glucose [3]; 165 min", "value": 4.0, "unit": "mmol/L"},
      {"measurement": "Blood glucose levels", "setting": "blood glucose [3]; 180 min", "value": 4.1, "unit": "mmol/L"},
      {"measurement": "Blood glucose levels", "setting": "blood glucose [3]; 195 min", "value": 4.3, "unit": "mmol/L"},
      {"measurement": "Blood glucose levels", "setting": "blood glucose [3]; 210 min", "value": 4.5, "unit": "mmol/L"},
      {"measurement": "Blood glucose levels", "setting": "blood glucose [3]; 225 min", "value": 4.7, "unit": "mmol/L"},
      {"measurement": "Blood glucose levels", "setting": "blood glucose [3]; 240 min", "value": 5.0, "unit": "mmol/L"},
      {"measurement": "Blood glucose levels", "setting": "meal glucose [4]; 0 min", "value": 8.7, "unit": "mmol/L"},
      {"measurement": "Blood glucose levels", "setting": "meal glucose [4]; 15 min", "value": 8.8, "unit": "mmol/L"},
      {"measurement": "Blood glucose levels", "setting": "meal glucose [4]; 30 min", "value": 8.9, "unit": "mmol/L"},
      {"measurement": "Blood glucose levels", "setting": "meal glucose [4]; 45 min", "value": 10.1, "unit": "mmol/L"},
      {"measurement": "Blood glucose levels", "setting": "meal glucose [4]; 60 min", "value": 11.8, "unit": "mmol/L"},
      {"measurement": "Blood glucose levels", "setting": "meal glucose [4]; 75 min", "value": 11.8, "unit": "mmol/L"},
      {"measurement": "Blood glucose levels", "setting": "meal glucose [4]; 90 min", "value": 12.2, "unit": "mmol/L"},
      {"measurement": "Blood glucose levels", "setting": "meal glucose [4]; 105 min", "value": 11.2, "unit": "mmol/L"},
      {"measurement": "Blood glucose levels", "setting": "meal glucose [4]; 120 min", "value": 10.4, "unit": "mmol/L"},
      {"measurement": "Blood glucose levels", "setting": "meal glucose [4]; 135 min", "value": 8.4, "unit": "mmol/L"},
      {"measurement": "Blood glucose levels", "setting": "meal glucose [4]; 150 min", "value": 7.3, "unit": "mmol/L"},
      {"measurement": "Blood glucose levels", "setting": "meal glucose [4]; 165 min", "value": 6.5, "unit": "mmol/L"},
      {"measurement": "Blood glucose levels", "setting": "meal glucose [4]; 180 min", "value": 4.3, "unit": "mmol/L"},
      {"measurement": "Blood glucose levels", "setting": "meal glucose [5]; 0 min", "value": 5.5, "unit": "mmol/L"},
      {"measurement": "Blood glucose levels", "setting": "meal glucose [5]; 15 min", "value": 5.6, "unit": "mmol/L"},
      {"measurement": "Blood glucose levels", "setting": "meal glucose [5]; 30 min", "value": 5.4, "unit": "mmol/L"},
      {"measurement": "Blood glucose levels", "setting": "meal glucose [5]; 45 min", "value": 5.4, "unit": "mmol/L"},
      {"measurement": "Blood glucose levels", "setting": "meal glucose [5]; 60 min", "value": 5.6, "unit": "mmol/L"},
      {"measurement": "Blood glucose levels", "setting": "meal glucose [5]; 75 min", "value": 6.6, "unit": "mmol/L"},
      {"measurement": "Blood glucose levels", "setting": "meal glucose [5]; 90 min", "value": 7.0, "unit": "mmol/L"},
      {"measurement": "Blood glucose levels", "setting": "meal glucose [5]; 105 min", "value": 5.9, "unit": "mmol/L"},
      {"measurement": "Blood glucose levels", "setting": "meal glucose [5]; 120 min", "value": 5.6, "unit": "mmol/L"},
      {"measurement": "Blood glucose levels", "setting": "meal glucose [5]; 135 min", "value": 5.1, "unit": "mmol/L"},
      {"measurement": "Blood glucose levels", "setting": "meal glucose [5]; 150 min", "value": 4.8, "unit": "mmol/L"},
      {"measurement": "Blood glucose levels", "setting": "meal glucose [5]; 165 min", "value": 4.6, "unit": "mmol/L"},
      {"measurement": "Blood glucose levels", "setting": "meal glucose [5]; 180 min", "value": 4.3, "unit": "mmol/L"}
    ]}
  ]
}
